{"source": "patent EP3748362A1", "about": "“IN VITRO METHOD FOR DETECTING RENAL DISEASE” (Fundacion Instituto De Investigacion Sanitaria Fundacion …, priority 2019, dated 2020)", "key": {"[1]": {"tested_on": "TRAF3", "assay": "TRAF3 western blot in TWEAK-stimulated HK2 cells", "assay_type": "cell-based, Human", "details": "paricalcitol 15 umol/L 48 hours before TWEAK 100 ng/ml for 24 hours", "description": "(§1) Human kidney proximal tubule epithelial cells (HK2 cell line, ATCC CRL-2190) were grown in RPMI 1640 with 10% fetal bovine serum (FBS), 1% glutamine, 100 U/ml penicillin, 100 µg/ml streptomycin, 5 µg/ml insulin-transferrin-selenite and 36 ng/ml hydrocortisone in 5% CO2 at 37° C. When cells reached 60 to 70% confluence, they were serum-depleted for 24 hours before the experiment.\nCells were stimulated with 100ng/ml recombinant human soluble TWEAK (Millipore) or p-200 µg/ml cresyl-sulfate (Raymond Vanholder and Griet Glorieux, University of Gent, Belgium). Concentrations of TWEAK and p-cresyl-sulfate were based on previously published dose-response experiments (Poveda et al. 2014; Sanz et al. 2008). […] DMSO, used as a solvent in some cases, had no effect on cell viability or on gene expression levels.\n(§2) For western blot, cell (25 µg/lane) and kidney (100-150 µg/lane) protein extracts were separated on 6%-12% polyacrylamide-SDS gels under reducing conditions. […] Autoradiographs were scanned using the Gel Doc™ EZ imager and analyzed with the Image Lab 3.0 software (BioRad)."}, "[2]": {"tested_on": "NF-κB2", "assay": "Non-canonical NF-κB2 activation and NF-κB2 targets in obstructed kidneys (UUO) in mice", "assay_type": "in vivo", "details": "paricalcitol 750 ng/kg/day", "description": "All animal procedures were performed according to the guidelines of animal research in the European Community and with prior approval by the Ethics Committee of the Health Research of the IIS-Fundacion Jiménez Díaz. For in vivo studies, mice received a daily intraperitoneal injection of the VDRA Paricalcitol starting 48 hours prior to induction of kidney damage.\nAt the time of sacrifice, animals were anesthetized with 5 mg/kg xylazine (Rompun, Bayer AG) and 35 mg/kg ketamine (Ketolar, Pfizer) and the kidneys perfused in situ with cold saline before removal. Then, kidney portions were fixed in formalin buffer for immunohistochemistry studies or immediately frozen in liquid nitrogen for gene and protein studies.\nUnilateral ureteral obstruction (UUO) was established in male C57BL/6 mice, under isoflurane-induced anesthesia. The left ureter was ligated with silk (5/0) at two locations and cut between ligatures to prevent urinary tract infection (obstructed kidney).(Ucero et al 2014; Rodrigues-Díez et al 2013) Two groups were studied; untreated or paricalcitol treated (750 ng/kg/day, i.p., Abbot), n=6-8 mice per group, starting 48 hours before surgery. Studies compared both kidneys (contralateral vs. obstructed) in each mouse.\nParaffin-embedded kidney sections (3 µm) were stained using conventional methods. […] For each sample (processed by duplicate in a blinded manner), the average value was obtained from the analysis of 4 fields (20X objective) as density/mm2 or percentage stained area vs total analyzed area. Data are expressed as fold increase over control mice, as mean ± SEM of 8-10 animals per group. […]\nFor western blot, cell (25 µg/lane) and kidney (100-150 µg/lane) protein extracts were separated on 6%-12% polyacrylamide-SDS gels under reducing conditions. […] Autoradiographs were scanned using the Gel Doc™ EZ imager and analyzed with the Image Lab 3.0 software (BioRad). […]"}, "[3]": {"tested_on": "NF-κB2", "assay": "Non-canonical NF-κB2 activation in TWEAK-stimulated PBMCs from healthy donors", "assay_type": "cell-based, Human", "details": "12 µM paricalcitol 24 hours, TWEAK 100 ng/ml, p52 levels"}, "[4]": {"tested_on": "NF-κB 1 pathway", "assay": "Canonical NF-κB1 activation in TWEAK-stimulated PBMCs from healthy donors", "assay_type": "cell-based, Human", "details": "12 µM paricalcitol, TWEAK 100 ng/ml, phosphorylated p65"}, "[5]": {"tested_on": "NF-κB1", "assay": "Canonical NF-κB1 activation (western blot) in TWEAK-stimulated HK2 cells", "assay_type": "cell-based, Human", "details": "12 µM paricalcitol for 48 hours, TWEAK 100 ng/ml 15 min, p65 and IκBα phosphorylation", "description": "as §1\nCells were stimulated with 100ng/ml recombinant human soluble TWEAK (Millipore) or p-200 µg/ml cresyl-sulfate (Raymond Vanholder and Griet Glorieux, University of Gent, Belgium). Concentrations of TWEAK and p-cresyl-sulfate were based on previously published dose-response experiments (Poveda et al. 2014; Sanz et al. 2008). In some experiments cells were preincubated for 48 hours with the paricalcitol 12 µmol/L (Abbott) prior to stimulation. DMSO, used as a solvent in some cases, had no effect on cell viability or on gene expression levels.\nas §2"}}, "data": [{"smiles": "C[C@H](/C=C/[C@H](C)C(C)(C)O)[C@H]1CC[C@H]2/C(=C/C=C3C[C@@H](O)C[C@H](O)C3)CCC[C@]12C", "note": "[paricalcitol]", "values": [{"measurement": "TWEAK-induced TRAF3 protein levels", "setting": "[1]", "result": "restored TWEAK-induced TRAF3 protein levels to values similar to control-untreated cells"}, {"measurement": "increased RelB levels and its nuclear localization", "setting": "[2]", "result": "prevented"}, {"measurement": "p100/p52 processing, and p52 nuclear translocation and DNA binding activity", "setting": "[2]", "result": "blocked"}, {"measurement": "increased expression of specific NF-κB2-regulated chemokines, including CCL21A and CCL19", "setting": "[2]; real time PCR", "result": "prevented"}, {"measurement": "TWEAK-induced NF-κB2 activation", "setting": "[3]", "result": "inhibited"}, {"measurement": "canonical NF-κB 1 pathway", "setting": "[4]", "result": "without modulating"}, {"measurement": "TWEAK-induced NF-κB1 activation", "setting": "[5]", "result": "did not modulate"}]}]}
